Assay results: patent US20190352511A1, “LANTHANIDE COMPLEXES COMPRISING DENDRIMERS” (UNIVERSITE D'ORLEANS, priority 2017, published 2019)

Tests used:
HeLa cells [1] = assay: Alamar Blue cytotoxicity test; assay type: cell-based, human; settings: up to 2 μM, 24 h incubation
Procedure: In order to determine the potential toxicity of the described dendrimers, an Alamar Blue test was performed on the HeLa […] carcinoma human cell line (FIG. 6). Different concentrations of chromophores (compound 9) and dendrimers (Ln8-)G3P-(Bodipy1)n (n=16, 32; Ln=Yb^3+, Nd^3+) were tested.

[2] = Photobleaching / photostability under continuous illumination; assay type: physicochemical; settings: 10 μM in DMSO, uninterrupted illumination at 670 nm for 3 h, emission at 735 nm
Procedure: The experiments were carried out for a solution at 10 μM in DMSO and under uninterrupted illumination at 670 nm, the emission being collected at 735 nm.
To test the photostability of the system, the chromophore (compound 9) and the dendrimers (Ln8-)G3P-(Bodipy1)n (n=16, 32; Ln =Yb^3+, Nd^3+) were continuously illuminated with 670 […]. nm and the emission signal was monitored at 735 nm. […] However, the photostability of G3P-(Bodipy1)16 could be improved by the incorporation of Ln^3+. In addition, it turned out to be dependent on the nature of the lanthanides. […] As for the initial chromophore, compound 9 (FIG. 5) loses 75% of its luminescence intensity after 3 hours of illumination. Therefore, in general, the attachment of the chromophore moieties to the dendrimer structure and the presence of Ln^3+ can be advantageously used to provide and enhance the photostability of the probe.
The continuous illumination of G3P-(Alkyne)x-(Cyanine)y (x=22-24, y=8-10) with a light centered at 665 nm makes it possible to estimate the photostability of the dendrimers which appears to be rather weak. (FIG. 11).

Absorption spectra = assay type: physicochemical; settings: DMSO, low energy main band at 672 nm
Excerpt: For the sake of comparison, the absorption spectrum of compound 9 is multiplied by a factor corresponding to the number of chromophores attached to the branches of the dendrimer, for example, by 16 for (Ln8-) G3P-(Bodipy1)16 and by 32 for (Ln8-) G3P-(Bodipy1)32.
The absorption spectrum of the Bodipy chromophore (compound 9) measured in a DMSO solution has a broad band of up to 770 nm with a low energy main band at 672 nm (ϵ=2.1.10^5 M^−1 cm^−1), FIG. 3). […] On the other hand, the molar coefficient of absorption increases with the number of Bodipy chromophore units attached.
Absorption spectra of the Yb8-G3P-(TPP)32 complex were recorded in DMSO and in the DMSO/(Opti-MEM/FCS, 6: 94%) mixture (FIG. 13).

HeLa cells [3] = assay: Cellular internalization by flow cytometry (NaN3 or 4° C. inhibition); assay type: cell-based, human; settings: 1.5 μM; for Cellular internalization, Active (percentage inhibited with NaN3): NaN3 treatment
Procedure: HeLa cells were incubated for 30 min with a 1.5 μM concentration solution of chromophores and dendrimers (Ln8-)G3P-(Bodipy1)n (n=16, 32; Ln=Yb^3+, Nd^3+) as control. In order to block the active and passive transport pathways, HeLa cells were treated with NaN3 (active internalization inhibitor) or pre-incubated at 4° C. for 30 min (inhibition of active and passive pathways) before incubation with the dendrimers.
Cytometry has been used to quantify cell internalization of dendrimers and to better understand signal intensity differences observed in confocal microscopy. The mechanisms of passive (non-dependent energy) and active (energy dependent) internalization of cells have been studied. Active transport was inhibited with sodium azide (NaN3), while incubation at 4° C. inhibited active and passive transport pathways by increasing the plasma membrane stiffness of HeLa cells (S. Vranic, N. Boggetto, V. Contremoulins, S. Mornet, N. Reinhardt, F. Marano, A. Baeza-Squiban, S. Boland, Deciphering the mechanisms of cellular uptake of nanoparticles by accurate evaluation of internalization for cytometry, Particle and Fiber Toxicology, 10 (2013) 1-16).
However, for both types of dendrimers, internalization is consistently higher for those containing Yb^3+ than for those containing Nd^3+. […] For the chromophore compound 9, a relatively strong emission signal was observed and corresponding to 65% internalization of Yb8G3P-(Bodipy1)16. […] Dendrimers enter cells through active and passive transport pathways (FIG. 8). The relative percentages of active or passive internalization vary according to the number of Bodipy chromophore and the presence of Ln^3+. […] However, further studies are needed to clarify the exact mechanisms of active transportation. […]

[4] = Absolute quantum yields (Q) in DMSO solution; assay type: physicochemical
Excerpt: The absolute quantum yields of the chromophore (compound 9) and dendrimers (Ln8-)G3P-(Bodipy1)n (n=16, 32; Ln=Yb^3+, Nd^3+) are summarized in Table 1. Significant decreases (6 and 3.4 times) in quantum emission efficiencies from the aza-BODIPY-COOH chromophoric moieties for the functionalized dendrimers, G3P-(aza-BODIPY)32 and G3P-(aza-BODIPY)16, respectively. […] On the other hand, the Q values are increased by 1.7 and 1.4 times for G3P-(Bodipy1)32 during the encapsulation of the lanthanide cations Yb^3+ and Nd^3+, respectively.

HeLa cells [5] = assay: Confocal fluorescence microscopy imaging; assay type: cell-based, human; settings: 30 min incubation, 1.5 μM, λex 633 nm (laser 6%), λem 650-800 nm
Procedure: HeLa cells after 30 min of incubation with a solution of 1.5 μM compound 9 and dendrimer (Ln8-)G3P-(Bodipy1)n (n=16, 32; Ln=Yb^3+, Nd^3+). The emission of aza-BODIPY (λex: 633 nm, λem: 650-800 nm) was observed under excitation at 633 nm (laser power at 6%). (Top) Yb8-G3P-(Bodipy1)16 (A), Nd8-G3P-(Bodipy1)16 (B), G3P-(Bodipy1)16 (C), Compound 9 (D) and (bottom) Yb8-G3P-(Bodipy1)32 (A), Nd8-G3P-(Bodipy1)32 (B), G3P-(Bodipy1)32 (C), untreated cells (D). The images are taken in the plane of the cellular nucleus. The white arrows indicate the specific localization of the dendrimers in the lysosomes and the yellow arrows indicate the filopods. 63× magnification lens.
Confocal microscopy experiments were performed to confirm the intracellular localization of the dendrimers (FIG. 7). For this purpose, HeLa cells were incubated for 30 min with a concentration solution of 1.5 μM, which corresponds to ˜89-100% of cell viability. The fluorescence of the dendrimers was observed using a 633 nm laser as the excitation source and the emission of aza-BODIPY was collected between 650 and 800 nm with an optical cut of 1 μm in the z axis. The same laser power was used for the different experiments to compare the signal intensity variations between different dendrimers.

SMILES: COc1ccc(-c2cc(-c3ccccc3)n(B(F)F)c2/N=C2\N=C(c3ccccc3)C=C2c2ccc(OCC(=O)O)cc2)cc1 [Compound 9, (Z)-2-(4-(2((1-(difluoroboryl)-3-(4-methoxyphenyl)-5-phenyl-1H-pyrrol-2-yl)imino)-5-phenyl-2H-pyrrol-3-yl)phenoxy)acetic acid]
- cell viability (HeLa cells [1]): ~100%
- decrease of initial luminescence intensity [2]: 75%
- molar absorption coefficient ϵ (Absorption spectra): 2.1.10^5 M^−1 cm^−1
- Cellular internalization, Passive (HeLa cells [3]; difference between internalization inhibited at 4° C. and inhibited with sodium azide): 81 ± 1%
- internalization relative to Yb8G3P-(Bodipy1)16 (HeLa cells [3]; 30 min incubation): 65%
- Cellular internalization, Active (percentage inhibited with NaN3) (HeLa cells [3]; 30 min incubation): 19%
- Cellular internalization, Active (percentage inhibited with NaN3) (HeLa cells [3]; 30 min incubation, listed as Composé{acute over ( )}9, 1.5 µM): 18 ± 4%
- quantum yield ratio versus Yb8-G3P-(aza-BODIPY)16 [4]: 3.4 times
- Q (%) quantum yield ([4]; 10 μM in DMSO, room temperature, excitation 650 nm, emission collected 660 to 850 nm): 8.04(8) %
- intracellular emission signal intensity (confocal) (HeLa cells [5]): signal of lower intensity
